The NIST ThermoML archive (doi:10.1021/je060271a)

Details: 323.15 K, Liquid, Vibrating tube method

CCCCCCCC(=O)OCC(COC(=O)CCCCCCC)(COC(=O)CCCCCCC)COC(=O)CCCCCCC [pentaerythritol tetraoctanoate]
Details	mass density [kg/m3]
1092.7 kPa	941.3
1117.7 kPa	941.4
1150.2 kPa	941.4
1178 kPa	941.4
1206.8 kPa	941.4
1237.7 kPa	941.5
1275.6 kPa	941.4
1308.8 kPa	941.4
1344.2 kPa	941.6
1380.8 kPa	941.4
1426.8 kPa	941.7
1467.5 kPa	941.6
1510.3 kPa	941.7
1707.2 kPa	941.7
1720.8 kPa	941.6
1734.6 kPa	941.9
1749 kPa	941.8
1766.8 kPa	941.8
1780.8 kPa	941.9
1795.7 kPa	941.8
1810.5 kPa	941.9
1828.9 kPa	941.8
1844.2 kPa	941.8
1859.6 kPa	942
1875.8 kPa	941.8
1895.2 kPa	942
1915.1 kPa	941.9
1932.3 kPa	942
1947.8 kPa	942
1957.8 kPa	942
1963.7 kPa	942
1968.9 kPa	942
1974 kPa	942
1987.2 kPa	942.1
2016.7 kPa	941.9
2142.1 kPa	942
2259.4 kPa	942.1
2339.7 kPa	942.1
2352.9 kPa	942.3
2366.5 kPa	942.3
2382.6 kPa	942.2
2409.7 kPa	942.5
2426.8 kPa	942.3
2441.1 kPa	942.3
2454.6 kPa	942.4
2468.6 kPa	942.2
2486 kPa	942.4
2500.4 kPa	942.4
2515.6 kPa	942.2
2533.2 kPa	942.4
2546 kPa	942.5
2554.1 kPa	942.4
2597 kPa	942.4
2605 kPa	942.4
2612.9 kPa	942.4
2622.5 kPa	942.4
2630.8 kPa	942.4
2639.1 kPa	942.4
2648.3 kPa	942.4
2656.5 kPa	942.4
2664.8 kPa	942.5
2674.9 kPa	942.5
2683.4 kPa	942.5
2692.2 kPa	942.4
2701.1 kPa	942.4
2709.7 kPa	942.4
2720 kPa	942.5
2728.5 kPa	942.4
2737.3 kPa	942.5
2746.3 kPa	942.5
2756.7 kPa	942.6
2765.4 kPa	942.6
2775.6 kPa	942.5
2784.8 kPa	942.5
2793.7 kPa	942.6
2803.2 kPa	942.6
2814.5 kPa	942.5
2821.9 kPa	942.6
2832.7 kPa	942.6
2841.7 kPa	942.5
2852.6 kPa	942.6
2862.2 kPa	942.5
2871.5 kPa	942.6
2880.9 kPa	942.6
2892.2 kPa	942.6
2901.4 kPa	942.6
2911.2 kPa	942.6
2922.7 kPa	942.6
2932.2 kPa	942.6
2944 kPa	942.6
2953.7 kPa	942.6
2963.9 kPa	942.6
2974 kPa	942.7
2983.7 kPa	942.7
2995.7 kPa	942.7
3005.6 kPa	942.6
3016 kPa	942.6
3027.9 kPa	942.7
3038.3 kPa	942.7
3048.7 kPa	942.7
3059.1 kPa	942.7
3071.6 kPa	942.8
3082 kPa	942.7
3092.6 kPa	942.7
3105.1 kPa	942.7
3115.6 kPa	942.8
3128.6 kPa	942.7
3139.4 kPa	942.6
3150.3 kPa	942.7
3159 kPa	942.7
3173.9 kPa	942.8
3185.2 kPa	942.8
3196.4 kPa	942.8
3207.5 kPa	942.8
3220.5 kPa	942.8
3232.3 kPa	942.8
3243.6 kPa	942.8
3257.1 kPa	942.9
3268.7 kPa	942.8
3280 kPa	942.8
3291.9 kPa	942.9
3306.1 kPa	942.9
3317.8 kPa	942.8
3329.5 kPa	942.9
3343.6 kPa	942.8
3355.4 kPa	942.9
3367.5 kPa	943
3380.2 kPa	943
3392.6 kPa	943.1
3407.2 kPa	943
3419.3 kPa	942.9
3431.8 kPa	943.1
3446.7 kPa	943
3459.2 kPa	942.9
3469.6 kPa	942.9
3479.3 kPa	943
3494.5 kPa	942.9
3507.4 kPa	943
3540.6 kPa	943
3553.8 kPa	942.9
3567 kPa	943.1
3580 kPa	943.1
3710.3 kPa	943.1
3724.8 kPa	943.2
3743.3 kPa	943
3756.8 kPa	943.3
3771.5 kPa	943.2
